Data: patent publication US6521641B1, “Male anti-fertility agents” (Allergan, Inc., priority 1998, dated 2003)
Where two headings read alike, the source gives them in different places.

System: Sprague-Dawley rats
Details: for epididymis histology: high dose rats
Description: Ninety-eight male and ninety-eight female Sprague-Dawley (Crl:CD®(SD) IGS BR) Charles River, Hollister, Calif. 95023) rats, approximately 8 to 10 weeks old, were used for the study. The rats were divided into the following groups: non-treated control, vehicle control, 0.005 mg/kg/day, 0.015 mg/kg/day and 0.15 mg/kg/day AGN 194310. AGN 194310 has the following chemical structure: [drawing 18]
The AGN 194310 compound was provided as follows: the compound was dissolved in capric/caprylic triglyceride (CCT) at a variety of doses, either 0.001% (v/v) AGN 194310, 0.003% (v/v) AGN 194310, or 0.01% (v/v) AGN 194310.
One hundred ninety-six animals were distributed into thirteen groups as follows: Groups 1 through 5 were Main Study groups. Groups 6-9 were used for Toxicokinetic studies. Groups 10-13 were Main Study Recovery groups.
The drug was administered using a graduated syringe and a 20×3 inch animal feeding needle. Drug was given to each animal in a single dose per day.
Urine was collected from animals in the Main Study and Recovery groups during week 4 of the treatment period, and from Recovery group animals during week 4 of the recovery period. Urine was analyzed for: blood (hemoglobin and erythrocytes), bilirubin, color, glucose, ketones, leukocytes, microscopic evaluations of any urine sediment, […], pH, protein, specific gravity, transparency, and urobilinogen.
Animals were euthanized by inhalation of carbon dioxide. A complete necropsy was performed on all Main Study and Recovery group animals that died, or were euthanized due to moribund conditions, or were euthanized on scheduled sacrifice.
The following organs were weighed for necroscopized animals: adrenal glands, ovaries, kidneys, pituitary gland, liver, spleen, heart, testes, and brain. In the case of organ pairs, both organs were weighed together.
The following tissues and organs were isolated, trimmed if necessary, and preserved in 10% buffered formalin for histopathological evaluation: adrenal glands, mammary gland (with skin), aorta, ovaries, bone/bone marrow, pancreas, femur, pituitary gland, tibia, prostate gland, knee joint, salivary glands, parotid, brain, sub-maxillary, cervix sciatic nerve, diaphragm, seminal vesicle, epididymides, skeletal muscle (thigh), eyes, spinal chord (thoracic), spleen, esophagus, sternum, stomach, testes, duodenum, thymus, jejunum, thyroid gland with parathyroids, ileum, any tissues with lesion(s), cecum, tongue, colon, trachea, heart, bladder, kidneys, uterus, liver, ureter, lungs, urethra, lymph nodes (vaginal, cervical, mediastinal, mesenteric).
Target tissues and organs from the Vehicle (control) and high-dose groups were imbedded in paraffin, and tissue sections made. The sections were mounted and stained with hematoxylin and eosin using standard histological techniques; such histopathological evaluation was performed using techniques well known in the art.
In the Recovery dosage groups that were so evaluated, the selected tissues were prepared and evaluated as set forth above.

[1] = male rats of the Recovery group, approximately one month without drug

In the case of CCc1ccc(C2=CC(C)(C)Sc3ccc(C#Cc4ccc(C(=O)O)cc4)cc32)cc1 [AGN 194310, 4-[[4-(4-ethylphenyl)-2,2-dimethyl-(2H)-thiochromen-6-yl]-ethynyl]-benzoic acid], the “germinal cell layers lining the seminiferous tubules” value (high dose males 0.15 mg/kg/day, usual four or more layers in normal tubules) is reported as “one to two layers of germinal cells”, the epididymis histology (end of recovery) is reported as “absence of stored epididymal sperm” and the epididymis histology (end of treatment) is reported as “increase in exfoliated cells”. For the same molecule, the “reversibility of inhibition (focal increase in germ cell layers in individual tubules)” value [1] was “reversibility of such inhibition was also evident”, the “spermatogenesis (morphology)” value [1] was “continuing cessation of spermatogenesis” and the testicular atrophy [1] was “testicular atrophy was evident”. The “spermatozoa counts in urine” value (male rats, oral 0.15 mg/kg/day, Recovery group, end of the recovery period) was “no spermatozoa counts”, the “testes size at postmortem examination” value (male rats, oral 0.15 mg/kg/day, end of the recovery period) was “apparent reduction of testes size in all five male rats” and the testes weight (male rats, oral high dose 0.15 mg/kg/day, end of the treatment and recovery periods) was “reduction in testes weight”. The “spermatogenic arrest (testes histology)” value (male rats, oral intermediate dose 0.015 mg/kg/day, end of treatment) was “No such effect”, the “spermatogenic arrest (testes histology)” value (male rats, oral low dose 0.005 mg/kg/day, end of treatment) was “No such effect” and the testes weight (male rats, oral, other dosage groups (0.005 and 0.015 mg/kg/day)) was “no statistically significant reduction of testes weight”. For the same molecule, the “male rats with spermatogenic arrest (testes histology)” value (oral high dose 0.15 mg/kg/day, end of treatment) was 10/10 and the “rats with inflammation or damage to stromal or vascular elements of the testis” value (rat, in vivo) was “None”.
